Data: patent US20260014278A1, “HYBRID PEPTIDE DENDRIMER SYSTEMS AND EXTRAHEPATIC DELIVERY” (NUNTIUS THERAPEUTICS LIMITED, priority 2022, published 2026)

Tests used:
[1] = Zeta potential of nanoparticles (electrophoretic light scattering); format: physicochemical
Text: Zeta potential is a measurement of the magnitude of the electrostatic or charge repulsion/attraction between particles. This can be determined by analysing particle mobility and charge (Zeta potential) using the Electrophoretic Light Scattering (ELS) technique.
Zeta potential is a measurement of the magnitude of the electrostatic or charge repulsion/attraction between particles. This can be determined by analysing particle mobility and charge (Zeta potential) using the Electrophoretic Light Scattering (ELS) technique. […] Parameters: reference material: polystyrene latex, dispersant: water, 25° C. The measurements of the zeta potential were carried out using the Zetasizer Advance Series—Pro (Malvern Panalytical Ltd, Malvern, UK) according to the manufacturer's instructions.

mouse macrophages = assay: eGFP mRNA transfection of mouse macrophages with or without mannose-dendrimer coat; format: cell-based
Procedure: J774.2 cells were subcultured in DMEM supplemented with 2 mM glutamax and 10% heat-inactivated FBS (complete media). Twice a week (at about 70-80% confluency; every 3-4 days), cells were scrapped and collected into Falcon tubes, and pelleted at 400 g for 5 minutes. The cells were resuspended in complete media, counted and seeded into 10 cm dishes at a density of 1.7-2.5E+4 cells/cm^2. For M2 polarisation, the cells were treated with complete media supplemented with 20 ng/ml recombinant murine IL-4 and 20 ng/ml recombinant murine IL-13 (activation media) over a 48 hr period. After 24 hrs in IL-4 and IL-13 containing medium, the cells scrapped and collected as described above. The cells were seeded into 24-well plates at a density of 1.2E+5 cells/well in 0.5mls/well complete media containing 20 ng/ml IL-4 and IL-13.
The media overlaying the polarised J774.2 cells was aspirated and exchanged with 480 ul/well activation media. 120 ul/well of each test condition (total volume was 600 ul/well) was added (test conditions were prepared in 25 mM HEPES solution). Control conditions were prepared consisting of neat 25 mM HEPES and an mRNA control. Between addition of each test condition the plate was shaken back and forth to ensure mixing. The plate was placed into the incubator overnight.
Staining and fixation for both human and mouse-derived macrophages was carried out as follows. After 24 hrs the media overlaying each test condition was transferred to corresponding 1.5 ml Eppendorf tubes (in order to conserve cells that may have died during transfection). Cells were then washed with 300 ul/well PBS which was transferred to the corresponding tubes. 500 ul/well 5 mM EDTA was added to each well and the plate(s) transferred to the 37° C. incubator for 5-10 minutes until the cells started to detach. Cells were then transferred from the plate to the corresponding 1.5 ml tubes. Cells were pelleted down at 300 g for 5 minutes and resuspended in 100 ul/sample fixable Live/Dead Aqua stain. ArC beads were stained with 3 ul neat Live/Dead Aqua for compensation. These cells were stained on ice for 30 minutes. Following this, the tubes were spun down at 300 g for 5 minutes. The supernatant was discarded, and the cells were resuspended in 500 ul/sample PBS. Negative ArC beads were added to the compensation control. GFP compensation beads were dispensed into separate tube as the GFP compensation control. The samples were spun down at 300 g for 5 minutes. Samples were then resuspended in 100 ul/sample of Reagent A from the Invitrogen Fix/Perm kit and left at room temperature for 15 minutes. The samples were spun down at 400 g for 5 minutes and the supernatant was disposed. The samples were once again washed with PBS and spun down at 300 g for 5 minutes. The cells were finally resuspended in 400 ul/sample FACS buffer (PBS+2 mM EDTA+0.5% w/v BSA) for flow analysis. Samples were stored in the fridge prior to flow analysis and run within 24 hrs of fixation.
12 μl of a nanoparticle formulation was aliquoted into a sterile 0.5 ml polypropylene tube. 4 μl of a 0.3 mg/ml, 0.6 mg/ml or 1.8 mg/ml solution of (Ac-EEEE)2[…][(S-S)-α-D-Thiomannose] (for a mRNA:coating mass ratio of 1:0.5, 1:1 or 1:3, respectively) was mixed by rapidly pipetting up and down 10-15 times, and allowed to incubate for 5 minutes.
Macrophages, and in particular M2-phenotype macrophages, are known to have enriched surface expression of the receptor CD206, the ligand for which is mannose.

[2] = system: macrophage-polarised primary bone marrow derived monocytes; assay: eGFP mRNA transfection of macrophage-polarised primary mouse bone marrow derived monocytes, flow cytometry; format: cell-based; details: GSCG1,2-RHL NP=0.6:1, GSCG1,2-RL, 3-LR NP=0.16:1, GSCG1,RL, 2-LR NP=8:1, DOTMA:DOPE w/w 10:1, lipid-only DOTMA/DOPE w/w 3.2:1, FIG. 2
Procedure: BMDM cells were isolated using the StemCell Tech EasySep Mouse Monocyte Isolation Kit from mouse bone marrow cell suspension. The cells were resuspended in complete medium (DMEM+1% glutamax+10% heat inactivated FBS+1% Pen/Strep) enriched with 50 ng/ml murine M-CSF (1:1000 of 50 μg/ml stock) at 1E+6 cells/mi. 2 million cells (i.e. 2 mL) was seeded in each well of 6-well plate(s). The plate was incubated at 37° C. for 4 days. Half media exchange was performed using complete media enriched with […] murine M-CSF and 40 ng/ml murine IL-4. Cells were then harvested the next day (day 5) by washing cells with PBS and a 10 minute incubation with 5 mM EDTA (diluted in PBS) at 37° C. followed by plate tapping and resuspension. […]
Data were collected using a BD LSRFortessa I analyser running […] software (Beckton Dickinson). All collected data were analysed using FlowJo 10.0 software.
Transfection efficiency of macrophage-polarised primary bone marrow derived monocytes using various peptide dendrimer/lipid nanoparticles was assessed and compared to lipid-only nanoparticles (LPX-RNA). Each nanoparticle, with or without dendrimer, included eGFP mRNA to allow analysis of absolute numbers of cells transfected to be assessed by flow cytometry. […]

Substance: (RHL)4(KRHL)2KGSC-NH2 [GSCG1,2-RHL]
- zeta potential ([1]; GSCG1,2-RHL N:P=0.6:1, DOTMA:DOPE, coated with GSGGSGGSCG1-EEEE, with/without CpG (mRNA:CpG w/w 9:1)): +48 mV
- Zeta potential measurement ([1]; GSCG1,2-RHL and DOTMA:DOPE nanoparticles, diluted 3× in 25 mM HEPES, then 60× in water): +33.5 mV
- zeta potential ([1]; mRNA, N:P 0.6:1, DOTMA:DOPE w/w 10:1, with or without 3 equivalents G1-EEEE with mannose coating): 28.23 mV
- transfection efficiency with mannose-conjugated dendrimer coat versus uncoated (mouse macrophages; NP=0.6:1, lipid:mRNA w/w 10:1, coat 3:1 (3 eq) coating:mRNA, FIG. 7): further increase the transfection efficiency
- transfection efficiency (mouse macrophages; NP=0.6:1, lipid:mRNA w/w 10:1, uncoated, FIG. 7): > 70%
- transfection rate (mouse macrophages; NP=8:1, DOTMA/DOPE:mRNA w/w 10:1, uncoated, FIG. 6): ~60%
- transfection efficiency (mouse macrophages; NP=8:1, lipid:mRNA w/w 2.5:1, coated with (Ac-EEEE)2KGSGGSGGSC[(S-S)-α-D-Thiomannose] at 1:1 (1 eq) coating:mRNA, FIG. 4): ~25%
- transfection efficiency (mouse macrophages; NP=8:1, lipid:mRNA w/w 2.5:1, uncoated, FIG. 4): 2-3%
- transfection efficiency (mouse macrophages; NP=8:1, lipid:mRNA w/w 5:1, dendrimer-mannose coat 0.5:1 (0.5 eq) coating:mRNA, FIG. 5): ~75%
- transfection efficiency (mouse macrophages; NP=8:1, lipid:mRNA w/w 5:1, uncoated, lipid-only nanoparticles as comparator, FIG. 5): ~60%
- transfection efficiency [2]: approximately 35%
